Here are results for six compounds from publication PMC5708526, “Targeting secondary protein complexes in drug discovery: studying the druggability and chemical biology of the HSP70/BAG1 complex” (Chemical Communications (Cambridge, England), 2017).

Like-named read-outs stand apart in the source and are kept apart here.

In assay [1] the target is T1, HSP72 (Homo sapiens, UniProt P0DMV8).
T1 construct: made in house
As to the kind of experiment: FP competition assay, displacement of bisaryl-ATTO-488 11 from primary HSP72 protein. In kind it is binding. The method, then:
(§1) To assess what effect the secondary HSP72/BAG1 complex had on the apparent affinity of the non-nucleotide bisaryl-ATTO-488 FP-probe 11, we carried out a similar BAG1 study. […] To confirm that the binding of BAG1 to HSP72 was not mutually exclusive, we screened the nucleotides ADP and ATP in a competition assay with bisaryl-ATTO-488 11 and HSP72 at a 50% bound fraction, with and without a saturating concentration of BAG1 (700 nM) (Fig. S7, ESI ^†). […]
(§2) TRIS Tris(hydroxymethyl)aminomethane
(§3) General Information: Unless otherwise stated the aqueous assay buffer contained 50 mM TRIS base pH 7.4, 150 mM NaCl, 6 mM MgCl2, 1 mM DTT, 0.1% (wt/wt) CHAPS. The assay was conducted using 384 Plus F ProxiPlates (PerkinElmer) with a final assay volume of 10 μL. Plates were centrifuged at 1000 rpm for 1 minute prior to incubation and read using an 2103 Envision Multilable Plate Reader. Excitation and emission wavelengths used for green probes were 480 nm and 535 nm, respectively.
Fluorescence polarisation was measured in units of millipolarization (mP). All experiments were performed in triplicate, unless otherwise stated. Data were plotted and analysed using GraphPad Prism 6, graphical data represents the mean ± standard error of the mean for a single representative experiment. ATP-derived fluorescent probes (1.0 mM in aqueous) were purchased from Jena Bioscience. Human BAG-1M (10.9 μM in 20 mM TRIS base pH 7.4, 100 mM NaCl, 1 mM DTT, 1% (v/v) glycerol) was purchased from Enzo Life Sciences. […]
Compound IC50 determination: Compounds (0.2 μL at 50 x screening concentration in DMSO) were dispensed using an ECHO 550 Liquid Handler (Labcyte Inc.). To the corresponding wells was added, 5 μL of probe molecule (20 nM in assay buffer) and 5 μL of protein (two times their final concentration in assay buffer) to give a 50% bound fraction. Tracer controls (10 nM probe molecule only) and bound tracer controls (10 nM probe in the presence of appropriate protein concentration) were included on each assay plate. IC50 determination was performed using non-linear least squares curve fitting (GraphPad Prism 6, log(inhibitor) vs. response— variable slope (four parameters)). […]
(§4) Compound screen with and without BAG-1: Compounds (0.2 μL at 50 x screening concentration in DMSO) were dispensed using an ECHO 550 Liquid Handler (Labcyte Inc.). To the corresponding wells was added, 5 μL of probe molecule (20 nM in assay buffer), 2.5 μL of HSP72 (four times final concentration in assay buffer) and either 2.5 µL of BAG-1 (2.8 µM in 20 mM TRIS base pH 7.4, 100 mM NaCl, 1 mM DTT, 1% (v/v) glycerol) or 2.5 µL of BAG1 replacement buffer (20 mM TRIS base pH 7.4, 100 mM NaCl, 1 mM DTT, 1% (v/v) glycerol). The assay was performed in duplicate. Tracer controls (10 nM probe molecule only) and bound tracer controls (10 nM probe in the presence of appropriate protein concentration) were included on each assay plate.
IC50 determination was performed using non-linear least squares curve fitting (GraphPad Prism 6, log(inhibitor) vs. response— variable slope (four parameters)).
Fig. S1. Determination of assay binding window for bisaryl-ATTO-488 and ATP-ATTO-488. Polarisation values (mP) for 2-63 nM ATP-ATTO-488 (red) and bisaryl ATTO-488 (blue) in the presence (▼) and absence (▲) of 5 µM HSP72, ↔ represents the assay window at 10 nM probe concentration. All data points were tested in triplicate and are represented as the arithmetic mean ±

For another assay, the target named is T2, HSP72/BAG1 complex (Homo sapiens, UniProt P0DMV8).
T2 construct: purchased Enzo Life Sciences (BAG-1M only)
The assay can be described thus: FP competition assay, displacement of bisaryl-ATTO-488 11 from secondary HSP72/BAG1 complex. The settings on record: for change in affinity for HSP72/BAG1 complex compared to primary protein: 700 nM BAG1. In kind it is binding. The method, then: as §1, §4
IC50 determination was performed using non-linear least squares curve fitting (GraphPad Prism 6, log(inhibitor) vs. response— variable slope (four parameters)). […]
Fig. S8. Representative competitive binding curves for ADP (A), ATP (B), compound 12 (C) and compound 13 (D) in the presence and absence of BAG1. Competition experiments in the presence of BAG1 (red) were performed using 10 nM biaryl-ATTO-488, 700 nM BAG1 and 140 nM HSP70 to give a 50% bound fraction. Competition experiments in the absence of BAG1 (blue) were performed using 10 nM biaryl-ATTO-488 and 180 nM HSP70 to give a 50% bound fraction. IC50 determination was performed using non-linear regression analysis (log(inhibitor) vs. response - Variable slope (four parameters)), all data points were tested in duplicate and are represented as the arithmetic mean ± SEM.

The next assay has as its target HSP72-NBD. Details: method as in PMID 19256508. The settings on record: reported affinity for HSP72-NBD by surface-plasmon resonance; cited from earlier work.
Assay [2] addresses T1, HSP72. As to the kind of experiment: FP assay binding window and Z' determination.
From the text: As a result, the assay was not statistically robust, so could not be used in competition experiments (Z′ = 0.36).[11],[20],[21] We hypothesised that the high lipophilicity of 10 (clog P = 6.9) was causing the small binding window, either due to aggregation, even at very low concentrations, or its large hydrate volume.[22] Because the lipophilicity of the specific-ligand portion of the probe was fixed by the need for high affinity to the HSP70 target, we focused on changes to the solvent exposed fluorophore. ATTO-488, a green-shifted fluorophore that contains two sulfonic acid groups, was selected as an alternative to fluorescein (see ESI ^†), as this reduced the clog P of the bisaryl probe 11 to –3.9.[21] The binding window of ATTO-488 bisaryl FP-probe 11 measured at a fixed and apparently saturating concentration of HSP72 (5 μM), was now greater than 150 mP (Z′ = 0.63, Fig. 3A and Fig. S1, ESI ^†). […]
as §2, §3
Fluorescence polarisation was measured in units of millipolarization (mP). All experiments were performed in triplicate, unless otherwise stated. Data were plotted and analysed using GraphPad Prism 6, graphical data represents the mean ± standard error of the mean for a single representative experiment. ATP-derived fluorescent probes (1.0 mM in aqueous) were purchased from Jena Bioscience. Human BAG-1M (10.9 μM in 20 mM TRIS base pH 7.4, 100 mM NaCl, 1 mM DTT, 1% (v/v) glycerol) was purchased from Enzo Life Sciences.
Determination of optimal probe concentration: To each well, 5 μL of HSP72 (10 µM in assay buffer) or 5 μL assay buffer and increasing concentrations of probe (5 μL, two-fold dilution series) were added. Fluorescence polarisation values for the tracer ± protein were plotted using GraphPad prism 6. […]
Z’ determination: To each well, 5 µL of probe (20 nM in assay buffer) and either 5 µL of HSP70 (in assay buffer) or 5 µL of assay buffer were added. Fluorescent polarisation values from 96 wells were used to calculate the mean and standard deviation for each data set. Z’-factors were calculated using the equation given below (sample refers to probe in the absence of protein and control refers to probe in the presence of protein). […]

Setting [3] is: 180 nM HSP72, 10 nM probe 11, BAG1 buffer, 16 h incubation, geometric mean of at least 3 experiments, read-out: IC50 –BAG1.
The mark [4] stands for this setting: 700 nM BAG1, 140 nM HSP72, 10 nM probe 11, 16 h incubation, geometric mean of at least 3 experiments, read-out: IC50 +BAG1.

T1 sequence (P0DMV8 whole entry): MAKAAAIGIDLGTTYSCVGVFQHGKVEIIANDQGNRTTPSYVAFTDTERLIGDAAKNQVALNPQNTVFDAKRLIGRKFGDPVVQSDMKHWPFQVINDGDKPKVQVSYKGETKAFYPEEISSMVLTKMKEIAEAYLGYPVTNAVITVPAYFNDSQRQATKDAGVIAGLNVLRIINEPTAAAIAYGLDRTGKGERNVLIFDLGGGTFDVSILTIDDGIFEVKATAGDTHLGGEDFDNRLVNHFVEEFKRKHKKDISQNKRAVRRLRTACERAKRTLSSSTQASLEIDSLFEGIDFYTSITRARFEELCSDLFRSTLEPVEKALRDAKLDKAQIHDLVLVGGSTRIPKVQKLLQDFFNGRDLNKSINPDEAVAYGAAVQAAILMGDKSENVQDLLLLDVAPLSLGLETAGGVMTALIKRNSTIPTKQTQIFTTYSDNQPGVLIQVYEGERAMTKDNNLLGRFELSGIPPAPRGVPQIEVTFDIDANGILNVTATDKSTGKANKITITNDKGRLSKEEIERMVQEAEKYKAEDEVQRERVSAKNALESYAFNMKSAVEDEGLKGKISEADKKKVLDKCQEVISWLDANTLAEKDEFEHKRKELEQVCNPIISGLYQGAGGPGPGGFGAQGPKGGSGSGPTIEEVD
T2 sequence (P0DMV8 whole entry): as above
T2 sequence (Q99933 72-345 partner limits assumed): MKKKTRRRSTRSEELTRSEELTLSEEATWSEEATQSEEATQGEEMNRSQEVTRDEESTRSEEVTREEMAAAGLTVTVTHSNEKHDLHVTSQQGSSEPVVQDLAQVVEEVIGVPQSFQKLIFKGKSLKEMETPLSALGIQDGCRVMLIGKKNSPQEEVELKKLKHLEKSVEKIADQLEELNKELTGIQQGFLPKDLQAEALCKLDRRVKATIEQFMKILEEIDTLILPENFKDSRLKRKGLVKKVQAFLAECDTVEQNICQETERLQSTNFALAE

The pIC50 is −log10 of the IC50, conventionally taken in molar units. Higher therefore signals a small IC50. Regarding `Nc1ncnc2c1ncn2[C@@H]1O[C@H](COP(=O)(O)OP(=O)(O)O)[C@@H](O)[C@H]1O` [ADP], the values for the IC50 on HSP72 [1] (setting [3]) and at HSP72/BAG1 complex (setting [4]) were 330 nM and 2200 nM, respectively. Moreover, at HSP72/BAG1 complex (700 nM BAG1, n = 3), the pIC50 is listed as 5.66 ± 0.04. At HSP72/BAG1 complex (700 nM BAG1 vs without BAG1), the “decrease in affinity for the secondary complex compared to primary HSP72” value is listed as 6.8 fold.
Turning to `Nc1ncnc2c1ncn2[C@@H]1O[C@H](COP(=O)(O)OP(=O)(O)OP(=O)(O)O)[C@@H](O)[C@H]1O` [ATP], the IC50 at HSP72 [1] (setting [3]) was 650 nM; on HSP72/BAG1 complex (setting [4]), over 10000 nM.
In general, Kd refers to the concentration at which binding is half-saturated. In the case of `Nc1ncnc2c1nc(NCc1ccc3ncccc3c1)n2[C@@H]1O[C@H](COCc2ccc(C(F)(F)F)cc2)[C@@H](O)[C@H]1O` [compound 2], the IC50 on HSP72 [1] (competition with FP-probe 11, HSP72, n = 3, read-out: pIC50 (converted)) was 135 nM; on HSP72 [1] (competition with FP-probe 11, HSP72, read-out: IC50), 137 nM. Moreover, the equilibrium dissociation constant (Kd) on HSP72-NBD is 60 nM.
Regarding `O=C(NCCCCCCNc1ncnc2c1nc(NCc1ccc3ncccc3c1)n2[C@@H]1O[C@H](COCc2ccc(C(F)(F)F)cc2)[C@@H](O)[C@H]1O)c1ccc(C(=O)O)c(-c2c3ccc(=O)cc-3oc3cc(O)ccc23)c1` [compound 10], on HSP72 [2] (FP assay with HSP72), the “Z'” value stood at 0.36. Moreover, the “assay (binding) window” value at HSP72 [2] (presence vs absence of 5 μM HSP72) is about 30 mP.
Regarding `Nc1ncnc2c1nc(NCc1ccc3ncccc3c1)n2[C@@H]1O[C@H](CO)[C@@H](O)[C@H]1O` [compound 12], the IC50 on HSP72 [1] (setting [3]) and at HSP72/BAG1 complex (setting [4]) was 2000 nM throughout. For the same compound, the “change in affinity for HSP72/BAG1 complex compared to primary protein” value on HSP72/BAG1 complex was “no significant change”.
Compound `NC(=O)c1cn([C@@H]2O[C@H](CO)[C@@H](O)[C@H]2O)c2ncnc(N)c12` [compound 13, sangivamycin] came in with an IC50 on HSP72 [1] of 2400 nM. For the same compound, on HSP72/BAG1 complex, the IC50 turned out to be 1000 nM and the “change in affinity for HSP72/BAG1 complex compared to primary protein” value was “no significant change”.
